Laboratory results taken from patent US20090062294A1, “HETEROARYL-SUBSTITUTED UREA MODULATORS OF FATTY ACID AMIDE HYDROLASE” (priority 2007, published 2009).
Structures can show the parent of a compound that is named as a salt.

What was measured:
FAAH = target: T1, FAAH (Homo sapiens, UniProt O00519); assay: Assay Method 1: FAAH assay, 3H-anandamide hydrolysis in homogenate of T84 cells or SK-N-MC cells transfected with human FAAH; assay type: biochemical; conditions: average of results, > = solubility limit or highest concentration tested
T1 sequence (O00519 1-579): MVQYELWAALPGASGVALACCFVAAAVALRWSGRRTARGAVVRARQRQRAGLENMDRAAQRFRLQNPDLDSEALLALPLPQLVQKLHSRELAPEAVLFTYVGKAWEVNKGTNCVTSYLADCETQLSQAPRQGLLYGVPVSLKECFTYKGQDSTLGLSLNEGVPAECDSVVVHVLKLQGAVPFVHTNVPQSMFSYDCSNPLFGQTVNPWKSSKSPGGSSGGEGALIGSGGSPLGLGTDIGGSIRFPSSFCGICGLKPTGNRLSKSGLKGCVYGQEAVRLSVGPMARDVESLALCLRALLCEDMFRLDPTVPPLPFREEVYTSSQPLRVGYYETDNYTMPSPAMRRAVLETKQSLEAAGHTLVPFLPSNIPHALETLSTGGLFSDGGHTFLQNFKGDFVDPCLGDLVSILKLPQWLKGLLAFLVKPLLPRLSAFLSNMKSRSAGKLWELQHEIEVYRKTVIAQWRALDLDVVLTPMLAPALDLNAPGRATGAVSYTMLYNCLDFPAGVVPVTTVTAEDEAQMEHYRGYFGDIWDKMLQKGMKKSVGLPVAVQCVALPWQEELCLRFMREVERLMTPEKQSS
Method in brief: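 Hydrolysis of ^3H-anandamide (80 nM final, added last) was measured over 1 h at rt, using test compound with homogenate of T84 cells or human FAAH-transfected SK-N-MC cells. The homogenization buffer was 125 mM Tris, 1 mM EDTA, 0.02% Triton X-100, pH 9. Unbound labelled ethanolamine was passed through charcoal filters and scintillation-counted.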

rat FAAH = target: T2, rat FAAH (Rattus norvegicus, UniProt P97612); assay: Assay Method 2: FAAH assay, 3H-anandamide hydrolysis in homogenate of SK-N-MC cells transfected with rat FAAH; assay type: biochemical; conditions: average of results, > = solubility limit or highest concentration tested
T2 sequence (P97612 1-579): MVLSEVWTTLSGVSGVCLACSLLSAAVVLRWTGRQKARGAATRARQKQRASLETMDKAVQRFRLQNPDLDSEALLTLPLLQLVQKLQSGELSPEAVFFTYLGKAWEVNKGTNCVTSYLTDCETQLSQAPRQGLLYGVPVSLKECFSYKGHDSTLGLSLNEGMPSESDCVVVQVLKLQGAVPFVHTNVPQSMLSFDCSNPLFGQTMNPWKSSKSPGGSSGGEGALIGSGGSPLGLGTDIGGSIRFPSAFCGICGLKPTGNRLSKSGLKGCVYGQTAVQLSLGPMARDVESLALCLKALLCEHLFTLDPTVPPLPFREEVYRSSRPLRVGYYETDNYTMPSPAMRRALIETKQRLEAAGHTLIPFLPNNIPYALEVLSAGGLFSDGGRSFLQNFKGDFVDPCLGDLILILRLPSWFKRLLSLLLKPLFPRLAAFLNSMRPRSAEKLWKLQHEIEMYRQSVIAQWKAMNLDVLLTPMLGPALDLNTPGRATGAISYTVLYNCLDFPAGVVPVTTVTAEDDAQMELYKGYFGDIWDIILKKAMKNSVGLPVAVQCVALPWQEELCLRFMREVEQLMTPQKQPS
Method in brief: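 Read-out is scintillation counting of [3H]-ethanolamine passing through activated charcoal, after 1 h at rt with 80 nM final [3H]-AEA. Enzyme source: lysate of G418-selected SK-N-MC clones expressing rat FAAH, homogenized in Tris/EDTA/glycerol/0.02% Triton buffer, pH 9.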

Row | IC50 (FAAH) [nM] | IC50 (rat FAAH) [nM] | Compound
1 | 380 | 630 | Cc1ccccc1CCc1cccc(CN2CCN(C(=O)Nc3noc4ccccc34)CC2)c1 [Example 94, 4-[3-(2-o-Tolyl-ethyl)-benzyl]-piperazine-1-carboxylic acid benzo[d]isoxazol-3-ylamide hydrochloride salt]
2 | 200 | 1100 | O=C(Nc1noc2ccccc12)N1CCN(Cc2cccc(Oc3ccccn3)c2)CC1 [Example 96, N-1,2-Benzisoxazol-3-yl-4-[3-(pyridin-2-yloxy)benzyl]piperazine-1-carboxamide]
3 | 270 | 5000 | O=C(Nc1noc2ccccc12)N1CCN(Cc2cccc(Oc3cnccn3)c2)CC1 [Example 97, N-1,2-Benzisoxazol-3-yl-4-[3-(pyrazin-2-yloxy)benzyl]piperazine-1-carboxamide]
4 | 22 | 300 | N#Cc1ccccc1COc1cccc(CN2CCN(C(=O)Nc3noc4ccccc34)CC2)c1 [Example 98, 4-[3-(2-Cyano-benzyloxy)-benzyl]-piperazine-1-carboxylic acid benzo[d]isoxazol-3-ylamide]
5 | 16 | 260 | O=C(Nc1noc2ccccc12)N1CCN(Cc2cccc(OCc3ccccc3)c2)CC1 [Example 99, N-1,2-Benzisoxazol-3-yl-4-[3-(benzyloxy)benzyl]piperazine-1-carboxamide]
6 | > 10000 | > 10000 | O=C(Nc1noc2ccccc12)N1CCN(Cc2ccc3nc[nH]c3c2)CC1 [Example 100, 4-(1H-Benzimidazol-6-ylmethyl)-N-1,2-benzisoxazol-3-ylpiperazine-1-carboxamide]
7 | > 10000 | > 10000 | CS(=O)(=O)c1ccc(CN2CCN(C(=O)Nc3noc4ccccc34)CC2)cc1 [Example 102, N-1,2-Benzisoxazol-3-yl-4-[4-(methylsulfonyl)benzyl]piperazine-1-carboxamide]
8 | 120 | 110 | O=C(Nc1noc2ccccc12)N1CCN(Cc2ccc(OC(F)(F)F)cc2)CC1 [Example 103, N-1,2-Benzisoxazol-3-yl-4-[4-(trifluoromethoxy)benzyl]piperazine-1-carboxamide]
9 | 37 | 690 | COc1ccc(NC(=O)N2CCN(Cc3cccc(Oc4ccc(Cl)cc4)c3)CC2)nn1 [Example 104, 4-[3-(4-Chlorophenoxy)benzyl]-N-(6-methoxypyridazin-3-yl)piperazine-1-carboxamide]
10 | 100 | 13 | O=C(Nc1noc2ccccc12)N1CCN(Cc2ccc(Cl)c(OC(F)(F)F)c2)CC1 [Example 105, N-1,2-Benzisoxazol-3-yl-4-[4-chloro-3-(trifluoromethoxy)benzyl]-piperazine-1-carboxamide]
11 | 80 | 27 | O=C(Nc1noc2ccccc12)N1CCN(Cc2ccc(F)c(OC(F)(F)F)c2)CC1 [Example 106, N-1,2-Benzisoxazol-3-yl-4-[4-fluoro-3-(trifluoromethoxy)benzyl]-piperazine-1-carboxamide]
12 | 80 | 37 | O=C(Nc1noc2ccccc12)N1CCN(Cc2ccc(OC(F)(F)F)c(Cl)c2)CC1 [Example 107, N-1,2-Benzisoxazol-3-yl-4-[3-chloro-4-(trifluoromethoxy)benzyl]-piperazine-1-carboxamide]
13 | 140 | 50 | O=C(Nc1noc2ccccc12)N1CCN(Cc2ccc(OC(F)(F)F)c(F)c2)CC1 [Example 108, N-1,2-Benzisoxazol-3-yl-4-[3-fluoro-4-(trifluoromethoxy)benzyl]-piperazine-1-carboxamide]
14 | 45 | 42 | O=C(Nc1noc2ccccc12)N1CCN(Cc2cccc(Oc3ccccc3)c2)CC1 [Example 110, N-1,2-Benzisoxazol-3-yl-4-(3-phenoxybenzyl)piperazine-1-carboxamide]
15 | 35 | 40 | O=C(Nc1noc2ccccc12)N1CCN(Cc2ccc(Cl)c(Cl)c2)CC1 [Example 111, N-1,2-Benzisoxazol-3-yl-4-(3,4-dichlorobenzyl)piperazine-1-carboxamide]
16 | 40 | 270 | O=C(Nc1noc2ccccc12)N1CCN(Cc2ccc(OCc3ccccc3)cc2)CC1 [Example 112, N-1,2-Benzisoxazol-3-yl-4-[4-(benzyloxy)benzyl]piperazine-1-carboxamide]
17 | 20 | 30 | O=C(Nc1noc2ccccc12)N1CCN(Cc2cc3ccccc3s2)CC1 [Example 113, N-1,2-Benzisoxazol-3-yl-4-(1-benzothiophen-2-ylmethyl)piperazine-1-carboxamide]
18 | 20 | 20 | O=C(Nc1noc2ccccc12)N1CCN(Cc2cccc(Oc3ccc4ncccc4c3)c2)CC1 [Example 114, N-1,2-Benzisoxazol-3-yl-4-[3-(quinolin-6-yloxy)benzyl]piperazine-1-carboxamide]
19 | 40 | 25 | O=C(Nc1noc2ccccc12)N1CCN(Cc2ccc(Br)c(F)c2)CC1 [Example 115, N-1,2-Benzisoxazol-3-yl-4-(4-bromo-3-fluorobenzyl)piperazine-1-carboxamide]
20 | 400 | 760 | O=C(Nc1noc2ccccc12)N1CCN(Cc2ccc3c(c2)OCO3)CC1 [Example 116, N-1,2-Benzisoxazol-3-yl-4-(1,3-benzodioxol-5-ylmethyl)piperazine-1-carboxamide]
21 | 130 | 440 | O=C(Nc1noc2ccccc12)N1CCN(Cc2cnc3ccccc3c2)CC1 [Example 117, N-1,2-Benzisoxazol-3-yl-4-(quinolin-3-ylmethyl)piperazine-1-carboxamide]
22 | 1800 | 8000 | O=C(Nc1noc2ccccc12)N1CCN(Cc2ccc3[nH]ccc3c2)CC1 [Example 118, N-1,2-Benzisoxazol-3-yl-4-(1H-indol-5-ylmethyl)piperazine-1-carboxamide]
23 | 45 | 9 | O=C(Nc1noc2ccccc12)N1CCN(Cc2cccc(Oc3ccc4ccccc4c3)c2)CC1 [Example 119, N-1,2-Benzisoxazol-3-yl-4-[3-(naphthalen-2-yloxy)benzyl]piperazine-1-carboxamide]
24 | 80 | 120 | O=C(Nc1noc2ccccc12)N1CCN(Cc2ccc(Br)cc2)CC1 [Example 120, N-1,2-Benzisoxazol-3-yl-4-(4-bromobenzyl)piperazine-1-carboxamide]
25 | 17 | 25 | O=C(Nc1noc2ccccc12)N1CCN(Cc2ccc(Br)c(Br)c2)CC1 [Example 121, N-1,2-Benzisoxazol-3-yl-4-(3,4-dibromobenzyl)piperazine-1-carboxamide]
26 | 148 | 115 | O=C(Nc1noc2ccccc12)N1CCN(Cc2cccc(Oc3ccccc3Cl)c2)CC1 [Example 122, N-1,2-Benzisoxazol-3-yl-4-[3-(2-chlorophenoxy)benzyl]piperazine-1-carboxamide]
27 | 20 | 40 | O=C(Nc1noc2ccccc12)N1CCN(Cc2ccc3ccccc3c2)CC1 [Example 123, 4-Naphthalen-2-ylmethyl-piperazine-1-carboxylic acid benzo[d]isoxazol-3-ylamide]
28 | 55 | 200 | O=C(Nc1noc2ccccc12)N1CCN(Cc2ccc3ccccc3n2)CC1 [Example 124, 4-Quinolin-2-ylmethyl-piperazine-1-carboxylic acid benzo[d]isoxazol-3-ylamide]
29 | 15 | 12 | N#Cc1ccc(Oc2cccc(CN3CCN(C(=O)Nc4noc5ccccc45)CC3)c2)cc1 [Example 125, 4-[3-(4-Cyano-phenoxy)-benzyl]-piperazine-1-carboxylic acid benzo[d]isoxazol-3-ylamide]
30 | 60 | 200 | O=C(Nc1noc2ccccc12)N1CCN(Cc2cc3ccccc3o2)CC1 [Example 126, 4-Benzofuran-2-ylmethyl-piperazine-1-carboxylic acid benzo[d]isoxazol-3-ylamide]
